The values below come from patent US11963960B2 (Flash Therapeutics, LLC, priority 2020, dated 2024).

Molecules are shown by their SMILES. Read-outs that look alike come from different tables or passages of the source. Where only a bound is given, the exact number is not on record here.

In the experiment the target is N-terminally GST-tagged HCK (75-526) (Homo sapiens (Human), UniProt P08631). The experiment in a line: HCK Kinase Assay (ProFluor Src-Family Kinase Assay). The class given is biochemical. The settings on record: 50 μM ATP. On the procedure: The procedure of ProFluor Src-Family Kinase Assay (Promega, Cat. No. V1271) was then followed. To the reaction was added 5 μL Protease solution and the mixture was incubated for 60 minutes at room temperature (22-25° C.), followed by 5 μL Stabilizer solution. The fluorescence signal was read on an Envision multilabel plate reader (Perkin Elmer). The R110 was then read at an excitation wavelength of 485 nm and an emission wavelength of 530 nm. The AMC signal was read at an excitation wavelength of 355 nm and an emission wavelength of 460 nm.
N-terminally GST-tagged HCK (75-526), sequence (P08631 75-526): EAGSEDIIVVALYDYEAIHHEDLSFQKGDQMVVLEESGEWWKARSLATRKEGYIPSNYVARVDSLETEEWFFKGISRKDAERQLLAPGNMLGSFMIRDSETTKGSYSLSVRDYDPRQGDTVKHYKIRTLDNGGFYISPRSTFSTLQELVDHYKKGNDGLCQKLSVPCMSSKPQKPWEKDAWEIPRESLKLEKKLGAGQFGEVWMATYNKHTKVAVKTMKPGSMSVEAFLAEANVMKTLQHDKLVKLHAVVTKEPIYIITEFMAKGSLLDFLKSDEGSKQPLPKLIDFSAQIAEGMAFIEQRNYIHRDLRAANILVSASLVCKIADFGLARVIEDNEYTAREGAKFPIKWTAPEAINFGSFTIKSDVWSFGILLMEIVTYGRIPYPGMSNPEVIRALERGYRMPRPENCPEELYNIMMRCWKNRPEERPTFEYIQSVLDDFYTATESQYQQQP

[1] abbreviates: HCK inhibitory activity, read-out: HCK Activity.

With `Nc1ncnc2c1c(-c1ccc(Oc3ccccc3)cc1)cn2[C@H]1CC[C@H](N2CCN3C(=O)CCC3C2)CC1` (stereo partly drawn) [Example 42, 2-((trans)-4-(4-amino-5-(4-phenoxyphenyl)-7H-pyrrolo[2,3-d]pyrimidin-7-yl)cyclohexyl)hexahydropyrrolo[1,2-a]pyrazin-6(2H)-one], under setting [1], the IC50 is 50 to 250 nM.

As to `CCc1cc(NC(=O)Nc2ccc(-c3cn([C@H]4CC[C@H](N5CCN(C)CC5)CC4)c4ncnc(N)c34)cc2)on1` [Example 118, 1-(4-(4-amino-7-((trans)-4-(4-methylpiperazin-1-yl)cyclohexyl)-7H-pyrrolo[2,3-d]pyrimidin-5-yl)phenyl)-3-(3-ethylisoxazol-5-yl)urea], the IC50 under setting [1] is 50 to 250 nM.

In the case of `CN1CCN([C@H]2CC[C@H](n3cc(-c4ccc(Oc5ccccc5C#N)cc4)c4c(N)ncnc43)CC2)CC1` [Example 112, 2-(4-(4-amino-7-((trans)-4-(4-methylpiperazin-1-yl)cyclohexyl)-7H-pyrrolo[2,3-d]pyrimidin-5-yl)phenoxy)benzonitrile], the IC50 under setting [1] is < 50 nM.

Turning to `CN1CCOC(C2CCC(n3cc(-c4ccc(Oc5ccccc5)cc4)c4c(N)ncnc43)CC2)C1` (stereo not drawn) [Example 144, 7-(4-(4-Methylmorpholin-2-yl)cyclohexyl)-5-(4-phenoxyphenyl)-7H-pyrrolo[2,3-d]pyrimidin-4-amine], the IC50 under setting [1] is < 50 nM.

With `Nc1ncnc2c1c(-c1ccc(Oc3ccccc3)cc1)cn2[C@H]1CC[C@@H](N2CCC3(CCNC3)C2)CC1` (relative stereo) [Example 137, 7-((cis)-4-(2,7-diazaspiro[4.4]nonan-2-yl)cyclohexyl)-5-(4-phenoxyphenyl)-7H-pyrrolo[2,3-d]pyrimidin-4-amine], the IC50 under setting [1] is 50 to 250 nM.

As for `Nc1ncnc2c1c(-c1ccc(Oc3ccccc3)cc1)cn2[C@H]1CC[C@@H](N2CCN3CCC[C@@H]3C2)CC1` [Example 49, 7-((cis)-4-((R)-hexahydropyrrolo[1,2-a]pyrazin-2(1H)-yl)cyclohexyl)-5-(4-phenoxyphenyl)-7H-pyrrolo[2,3-d]pyrimidin-4-amine], the IC50 under setting [1] was < 50 nM.

For `CN1CCN([C@H]2CC[C@H](c3nc(-c4ccc(Oc5ccccc5)cc4)c4c(N)nccn43)CC2)CC1` [Example 173, 3-((trans)-4-(4-Methylpiperazin-1-yl)cyclohexyl)-1-(4-phenoxyphenyl)imidazo[1,5-a]pyrazin-8-amine], the IC50 under setting [1] was < 50 nM.

Consider `Nc1ncnc2c1c(-c1ccc(Oc3ccccc3)cc1)cn2C1CCC2(CC1)OCC(N)CO2` (stereo not drawn) [Example 92, 7-(3-Amino-1,5-dioxaspiro[5.5]undecan-9-yl)-5-(4-phenoxyphenyl)-7H-pyrrolo [2,3-d]pyrimidin-4-amine], for which the IC50 under setting [1] lay in the range of 50 to 250 nM.

As for `CN(C)[C@@H]1CN([C@H]2CC[C@@H](n3cc(-c4ccc(Oc5ccccc5)cc4F)c4c(N)ncnc43)CC2)C[C@H]1O` [Example 74, (3R,4R)-1-((cis)-4-(4-amino-5-(2-fluoro-4-phenoxyphenyl)-7H-pyrrolo[2,3-d]pyrimidin-7-yl)cyclohexyl)-4-(dimethylamino)pyrrolidin-3-ol], the IC50 under setting [1] was 50 to 250 nM.

Regarding `CN(C)[C@@H]1CN([C@H]2CC[C@H](n3cc(-c4ccc(Oc5ccccc5)cc4F)c4c(N)ncnc43)CC2)C[C@H]1O` [Example 73, (3R,4R)-1-((trans)-4-(4-amino-5-(2-fluoro-4-phenoxyphenyl)-7H-pyrrolo[2,3-d]pyrimidin-7-yl)cyclohexyl)-4-(dimethylamino)pyrrolidin-3-ol], the IC50 under setting [1] was < 50 nM.

Regarding `Nc1ncnc2c1c(-c1ccc(Oc3ccccc3)cc1)cn2[C@H]1CC[C@@H](NC2CNC2)CC1` [Example 84, 7-((cis)-4-(azetidin-3-ylamino)cyclohexyl)-5-(4-phenoxyphenyl)-7H-pyrrolo[2,3-d]pyrimidin-4-amine], under setting [1], the IC50 is 50 to 250 nM.

For `Nc1ncnc2c1c(-c1ccc(Oc3ccccc3)cc1)cn2[C@H]1CC[C@H](N2CCCC(N)C2)CC1` (stereo partly drawn) [Example 54, 7-((trans)-4-(3-aminopiperidin-1-yl)cyclohexyl)-5-(4-phenoxyphenyl)-7H-pyrrolo[2,3-d]pyrimidin-4-amine], the IC50 under setting [1] is < 50 nM.

Regarding `Nc1ncnc2c1c(-c1ccc(Oc3ccccc3)cc1)cn2[C@H]1CC[C@H](N2CCN3CCC[C@@H]3C2)CC1` [Example 48, 7-((trans)-4-((R)-hexahydropyrrolo[1,2-a]pyrazin-2(1H)-yl)cyclohexyl)-5-(4-phenoxyphenyl)-7H-pyrrolo[2,3-d]pyrimidin-4-amine], the IC50 under setting [1] was < 50 nM.

In the case of `CN(C)[C@H]1CN([C@H]2CC[C@H](n3cc(-c4ccc(Oc5ccccc5)cc4)c4c(N)ncnc43)CC2)C[C@H]1O` [Example 71, (3R,4S)-1-((trans)-4-(4-amino-5-(4-phenoxyphenyl)-7H-pyrrolo[2,3-d]pyrimidin-7-yl)cyclohexyl)-4-(dimethylamino)pyrrolidin-3-ol], under setting [1], the IC50 was < 50 nM.

As to `CN1CCN([C@H]2CC[C@H](n3cc(-c4ccc(Oc5ccccc5)cc4)c4c(O)ncnc43)CC2)CC1` [Example 87, 7-((trans)-4-(4-Methylpiperazin-1-yl)cyclohexyl)-5-(4-phenoxyphenyl)-7H-pyrrolo[2,3-d]pyrimidin-4-ol], under setting [1], the IC50 is < 50 nM.

With `CN1CCN(C2CCC(n3nc(-c4ccc(Oc5ccccc5)cc4F)c4c(N)ncnc43)C2)CC1` (stereo not drawn) [Example 135], the IC50 under setting [1] was in the range of 50 to 250 nM.

For the compound `CNC(=O)C=C1CCC(n2cc(-c3ccc(Oc4ccccc4)cc3)c3c(N)ncnc32)CC1` (stereo not drawn) [Example 97, 2-(4-(4-amino-5-(4-phenoxyphenyl)-7H-pyrrolo[2,3-d]pyrimidin-7-yl)cyclohexylidene)-N-methylacetamide], under setting [1], the IC50 is < 50 nM.

Consider `COc1cc(-c2cn([C@H]3CC[C@H](N4CCN[C@@H](C)C4)CC3)c3ncnc(N)c23)ccc1Oc1ccccc1` [Example 134, 5-(3-Methoxy-4-phenoxyphenyl)-7-((trans)-4-((S)-3-methylpiperazin-1-yl)cyclohexyl)-7H-pyrrolo[2,3-d]pyrimidin-4-amine], for which, under setting [1], the IC50 was < 50 nM.

On to `C[C@@H]1CN([C@H]2CC[C@@H](n3cc(-c4ccc(Oc5ccccc5)cc4F)c4c(N)ncnc43)CC2)CCN1` [Example 16, 5-(2-fluoro-4-phenoxyphenyl)-7-((cis)-4-((R)-3-methylpiperazin-1-yl)cyclohexyl)-7H-pyrrolo[2,3-d]pyrimidin-4-amine], for which the IC50 under setting [1] was 50 to 250 nM.

On to `C[C@H]1CC(N2CCC(n3nc(-c4ccc(Oc5ccccc5)cc4F)c4c(N)ncnc43)CC2)CCN1` (stereo partly drawn) [Example 155, 3-(2-fluoro-4-phenoxyphenyl)-1-((2′S)-2′-methyl-[1,4′-bipiperidin]-4-yl)-1H-pyrazolo[3,4-d]pyrimidin-4-amine], for which the IC50 under setting [1] is < 50 nM.

On to `Nc1ncnc2c1c(-c1ccc(Oc3ccccc3)cc1)cn2[C@H]1CC[C@H](N2CCN(N)CC2)CC1` [Example 38, 7-((trans)-4-(4-aminopiperazin-1-yl)cyclohexyl)-5-(4-phenoxyphenyl)-7H-pyrrolo[2,3-d]pyrimidin-4-amine], for which the IC50 under setting [1] was < 50 nM.

`Nc1ncnc2c1c(-c1ccc(Oc3ccccc3)cc1)cn2C1CCC(N2CC3CCC2CN3)CC1` (stereo not drawn) [Example 37, 7-(4-(2,5-diazabicyclo[2.2.2]octan-2-yl)cyclohexyl)-5-(4-phenoxyphenyl)-7H-pyrrolo[2,3-d]pyrimidin-4-amine]: the IC50 under setting [1] is < 50 nM.

Take `Cc1ccc(Oc2ccc(-c3cn([C@H]4CC[C@H](N5CCN(C)CC5)CC4)c4ncnc(N)c34)cc2)cc1` [Example 111, 7-((trans)-4-(4-methylpiperazin-1-yl)cyclohexyl)-5-(4-(p-tolyloxy)phenyl)-7H-pyrrolo[2,3-d]pyrimidin-4-amine]: the IC50 under setting [1] fell in the range of 50 to 250 nM.

`C[C@@H]1CN([C@H]2CC[C@@H](n3cc(-c4ccc(Oc5ccccc5)cc4)c4c(N)ncnc43)CC2)CCN1C` [Example 24, 7-((cis)-4-((R)-3,4-dimethylpiperazin-1-yl)cyclohexyl)-5-(4-phenoxyphenyl)-7H-pyrrolo[2,3-d]pyrimidin-4-amine]: under setting [1], the IC50 is < 50 nM.

As to `Nc1ncnc2c1c(-c1ccc(Oc3ccccc3)cc1)cn2C1CCC(O)(Cn2ccnc2)CC1` (stereo not drawn) [Example 101, 1-((1H-Imidazol-1-yl)methyl)-4-(4-amino-5-(4-phenoxyphenyl)-7H-pyrrolo[2,3-d]pyrimidin-7-yl)cyclohexanol], the IC50 under setting [1] was 50 to 250 nM.

As to `CCN1CCN([C@H]2CC[C@H](n3nc(-c4ccc(Oc5ccccc5)cc4F)c4c(N)ncnc43)CC2)CC1` [Example 9, 1-((trans)-4-(4-ethylpiperazin-1-yl)cyclohexyl)-3-(2-fluoro-4-phenoxyphenyl)-1H-pyrazolo[3,4-d]pyrimidin-4-amine], under setting [1], the IC50 is < 50 nM.

`C[C@@H]1CN([C@H]2CC[C@H](n3cc(-c4ccc(Oc5ccccc5)cc4)c4c(N)ncnc43)CC2)CCN1` [Example 12, 7-((trans)-4-((R)-3-methylpiperazin-1-yl)cyclohexyl)-5-(4-phenoxyphenyl)-7H-pyrrolo[2,3-d]pyrimidin-4-amine]: under setting [1], the IC50 fell in the range of 250 to 10000 nM.

As for `C[C@@H]1CN([C@H]2CC[C@H](n3nc(-c4ccc(Oc5ccccc5)cc4F)c4c(N)ncnc43)CC2)CCN1` [Example 17, 3-(2-fluoro-4-phenoxyphenyl)-1-((trans)-4-((R)-3-methylpiperazin-1-yl)cyclohexyl)-1H-pyrazolo[3,4-d]pyrimidin-4-amine], the IC50 runs as follows: (read-out: HCK IC50) 16.5 nM; under setting [1], < 50 nM.

Turning to `C[C@H]1CN([C@H]2CC[C@@H](c3nc(-c4ccc(Oc5ccccc5)cc4F)c4c(N)ncnn43)CC2)CCN1` [Example 166, 5-(2-fluoro-4-phenoxyphenyl)-7-((cis)-4-((S)-3-methylpiperazin-1-yl)cyclohexyl)imidazo[5,1-f][1,2,4]triazin-4-amine], the IC50 under setting [1] lay within 250 to 10000 nM.
